{
  "source": "patent US9549895B2",
  "about": "“Methods and compositions for preserving the viability of photoreceptor cells” (Massachusetts Eye and Ear Infirmary, priority 2004, dated 2017)",
  "molecules": {"B1": {"name": "PEDF: pigment epithelium-derived factor (BioProducts MD), neurotrophic factor (protein, UniProt P36955 20-418, looked up)", "Pigment epithelium-derived …": "QNPASPPEEGSPDPDSTGALVEEEDPFFKVPVNKLAAAVSNFGYDLYRVRSSTSPTTNVLLSPLSVATALSALSLGAEQRTESIIHRALYYDLISSPDIHGTYKELLDTVTAPQKNLKSASRIVFEKKLRIKSSFVAPLEKSYGTRPRVLTGNPRLDLQEINNWVQAQMKGKLARSTKEIPDEISILLLGVAHFKGQWVTKFDSRKTSLEDFYLDEERTVRVPMMSDPKAVLRYGLDSDLSCKIAQLPLTGSMSIIFFLPLKVTQNLTLIEESLTSEFIHDIDRELKTVQAVLTVPKLKLSYEGEVTKSLQEMKLQSLFDSPDFSKITGKPIKLTQVEHRAGFEWNEDGAGTTPSPGLQPAHLTFPLDYHLNQPFIFVLRDTDTGALLFIGKILDPRGP"}, "B2": {"name": "IL-1 beta: rat recombinant IL-1 beta administered subretinally (protein, UniProt Q63264 117-268, looked up)", "Interleukin-1 beta": "VPIRQLHCRLRDEQQKCLVLSDPCELKALHLNGQNISQQVVFSMSFVQGETSNDKIPVALGLKGLNLYLSCVMKDGTPTLQLESVDPKQYPKKKMEKRFVFNKIEVKTKVEFESAQFPNWYISTSQAEHRPVFLGNSNGRDIVDFTMEPVSS"}},
  "key": {"[1]": {"molecular_target": "T1, caspase 4 (Homo sapiens, UniProt P49662)", "T1 sequence (P49662 81-270 limits assumed)": "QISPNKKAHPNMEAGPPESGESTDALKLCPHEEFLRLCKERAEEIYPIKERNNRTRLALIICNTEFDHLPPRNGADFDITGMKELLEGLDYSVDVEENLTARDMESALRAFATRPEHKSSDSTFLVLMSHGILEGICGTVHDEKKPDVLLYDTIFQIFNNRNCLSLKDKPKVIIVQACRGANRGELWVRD", "T1 sequence (P49662 290-377 limits assumed)": "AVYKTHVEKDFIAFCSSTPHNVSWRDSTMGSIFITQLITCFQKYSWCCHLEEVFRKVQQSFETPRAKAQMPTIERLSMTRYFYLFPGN", "settings": "cited from earlier work"}, "[2]": {"molecular_target": "T2, caspase 3 (Homo sapiens, UniProt P42574)", "T2 sequence (P42574 29-175 limits assumed)": "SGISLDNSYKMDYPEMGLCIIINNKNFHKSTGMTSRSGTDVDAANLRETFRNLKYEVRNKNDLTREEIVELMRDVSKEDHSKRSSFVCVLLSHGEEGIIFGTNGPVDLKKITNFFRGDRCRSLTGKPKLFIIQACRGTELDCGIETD", "T2 sequence (P42574 176-277 limits assumed)": "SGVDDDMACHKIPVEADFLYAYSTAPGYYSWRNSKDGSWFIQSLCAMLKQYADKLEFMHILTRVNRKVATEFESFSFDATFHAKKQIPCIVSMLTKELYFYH", "settings": "cited from earlier work"}, "[3]": {"molecular_target": "T3, caspase 7 (Homo sapiens, UniProt P55210)", "T3 sequence (P55210 24-198 limits assumed)": "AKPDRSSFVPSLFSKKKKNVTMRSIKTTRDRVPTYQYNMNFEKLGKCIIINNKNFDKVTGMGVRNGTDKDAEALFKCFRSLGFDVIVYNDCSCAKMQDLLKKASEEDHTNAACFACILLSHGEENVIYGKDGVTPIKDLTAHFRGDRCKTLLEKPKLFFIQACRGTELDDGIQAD", "T3 sequence (P55210 207-303 limits assumed)": "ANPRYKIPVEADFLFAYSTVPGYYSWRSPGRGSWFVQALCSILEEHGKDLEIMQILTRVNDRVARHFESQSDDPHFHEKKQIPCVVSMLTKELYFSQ", "settings": "cited from earlier work"}, "[4]": {"molecular_target": "T4, caspase 1 (Homo sapiens, UniProt P29466)", "T4 sequence (P29466 120-297 limits assumed)": "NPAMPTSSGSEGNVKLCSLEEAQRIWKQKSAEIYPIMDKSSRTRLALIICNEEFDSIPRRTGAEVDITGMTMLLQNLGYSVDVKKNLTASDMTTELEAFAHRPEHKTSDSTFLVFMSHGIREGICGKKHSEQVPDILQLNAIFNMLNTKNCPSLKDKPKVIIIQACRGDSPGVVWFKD", "T4 sequence (P29466 317-404 limits assumed)": "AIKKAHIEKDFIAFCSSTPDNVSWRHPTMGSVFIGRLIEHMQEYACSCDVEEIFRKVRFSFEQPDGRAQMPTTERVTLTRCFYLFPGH", "settings": "cited from earlier work"}, "[5]": {"tested_on": "photoreceptor cell death (TUNEL-positive cells in the ONL)", "test": "TUNEL staining 24 hours after retinal detachment with subretinal administration of cytokines", "format": "in vivo, rat", "settings": "subretinal 5 μl of 0.1 μg/μl, PBS control 15.3±5.4, n=7", "procedure": "Retinal detachment was induced by subretinal injection of sodium hyaluronate. Retinal tissues were collected at various time points (1, 3, 6, 24, 72 hours) after inducing retinal detachment. Neural retina was homogenized, and mRNA expression was quantified by QPCR. To identify the cellular sources of expressed genes, samples from various retinal layers were obtained using LCM. Immunohistochemistry and Enzyme Linked-Immuno-Sorbent Assay (ELISA) were performed to show expressional changes of proteins. TUNEL staining was used in order to assess photoreceptor death induced by retinal detachment with or without subretinal administration of cytokines.\nFifty-five adult male Brown Norway rats (200-300 g, Charles River, Boston, Mass.) were used in this study. Rats were anesthetized with a 1:1 mixture of ketamine (100 mg/mL) and xylazine (20 mg/mL; both from Phoenix Pharmaceutical, St. Joseph, Mo.). Pupils were dilated with a topically applied mixture of phenylephrine (5.0%) and tropicamide (0.8%; Massachusetts Eye and Ear Infirmary internal formulary preparation). A sclerotomy was created approximately 2 mm posterior to the limbus with a 22-gauge needle. Care was taken not to damage the lens during creation of the sclerotomy. A Glaser subretinal injector (20-gauge shaft with a 32-gauge tip, BD Biosciences, San Jose, Calif.) connected to a syringe filled with 10 mg/mL Healon® sodium hyaluronate (Pharmacia and Upjohn Co., Kalamazoo, Mich.) was then introduced into the vitreous cavity. […]\nSubretinal administration of select cytokines was performed following the creation of retinal detachment. […] TUNEL-positive cells were counted in a masked fashion, and standard error was determined.\nTo investigate effects of cytokines on photoreceptor cell death induced by retinal detachment, TUNEL staining was performed 24 hours after retinal detachment with subretinal administration of PBS, TNF-alpha (0.1 μg/μl), IL-1 beta (0.1 μg/μl), or MCP-1 (0.1 μg/μl). […] In the control condition with PBS, TUNEL-positive cells were detected in the ONL 24 hours after retinal detachment (15.3±5.4 cells/field, n=7). […]"}, "[6]": {"tested_on": "photoreceptor cell death (TUNEL-positive response in the ONL)", "test": "TUNEL analysis 72 hours after retinal detachment with subretinal TNF-alpha suppressing agents", "format": "in vivo, rat", "settings": "subretinal 5 μl, 2 mg/mL, FIG. 12", "procedure": "Retinal detachments were created only in the right eye of each animal, and the left eye served as a control. Following retinal detachment, various treatments were administered subretinally using a Hamilton syringe equipped with a 32-gauge needle. The tip of needle was introduced through a sclerotomy and retinal hole into the subretinal space, and 5 μl of solution, either normal goat serum (0.1 mg/mL), goat anti-TNF-alpha antibody (0.1 mg/mL), or etanercept (2 mg/mL), was injected over 3 minutes. Seventy-two hours after retinal detachment, the eyes were subjected to TUNEL analysis."}, "[7]": {"tested_on": "mRNA levels of bFGF, TNF-alpha, IL-1 beta", "test": "Realtime PCR of cytokine mRNA in detached retina after intravitreal PEDF", "format": "in vivo, rat", "settings": "5.0 μg intravitreal injection just after detachment versus PBS control; FIG. 16", "procedure": "(§1) For both sets of experiments, all eyes were enucleated 72 hours after retinal detachment and embedded in paraffin. Four micron sections through the area of detachment, including the optic nerve, were obtained. Light microscopy was performed at 3× and at 32× magnification using hematoxylin-eosin staining. TUNEL staining was performed using a commercial kit (Oncogene, San Diego, Calif.) and viewed at 20× magnification using green fluorescein staining for TUNEL and blue DAPI nuclear staining. TUNEL-positive cells were counted per millimeter of tissue by a masked observer. The mean number of TUNEL-positive cells per millimeter of tissue was determined by averaging the number of TUNEL-positive cells per mm of tissue in three sections of each eye. Additionally, a realtime polymerase chain reaction (PCR) was performed for a variety of cytokines, including bFGF, TNF-alpha, and IL-1 beta, on extracted retina from normal eyes (n=6), untreated eyes with retinal detachment (n=6), PEDF-treated eyes with retinal detachment (n=6) and PBS-treated eyes with retinal detachment (n=6).\nA realtime PCR was performed for a variety of cytokines, including bFGF, PEDF, TNF-alpha, IL-1 beta, HGF, CNTF, TGF beta, and IGF 1. The amount of each mRNA from each of six eyes treated with a 5.0 μg intravitreal injection of PEDF just after detachment was averaged. […]"}, "[8]": {"tested_on": "photoreceptor cell death (TUNEL-positive cells)", "test": "TUNEL staining 72 hours after retinal detachment with intravitreal or subretinal PEDF", "format": "in vivo, rat", "settings": "for difference in number of TUNEL-positive cells, intravitreally-injected control eyes versus intravitreally-injected PEDF eyes: intravitreal; for Number of TUNEL-Positive Cells, Mean: 72 hours", "procedure": "In these experiments, retinal detachments were created in Brown Norway rats by injecting […] into the subretinal space using a transvitreous approach. Treatment with PEDF (BioProducts MD, Middletown, Md.) or control vehicle was administered immediately after detachment. In an initial set of experiments, the treatment groups included: intravitreal administration of 2.5 μg PEDF (n=6); intravitreal administration of 5.0 μg PEDF (n=9); subretinal administration of 2.5 μg PEDF (n=6); subretinal administration of 5.0 μg PEDF (n=9); intravitreal administration of control vehicle (n=3); and subretinal administration of control vehicle (n=3). In a second set of experiments, the treatment groups included: intravitreal administration of 5.0 μg PEDF (n=15); subretinal administration of 5.0 μg PEDF (n=15); intravitreal administration of control vehicle (n=9); and subretinal administration of control vehicle (n=9).\nas §1"}},
  "note": "Where “and” joins values, the source holds several entries; their conditions need not be identical. Identical values can stand only once.",
  "data": [
    {"molecule": "2-Val-Ala-Asp-fluoromethylketone", "values": [
      {"measurement": "caspase inhibition", "setting": "[1]", "result": "inhibits"},
      {"measurement": "caspase inhibition", "setting": "[2]", "result": "inhibits"},
      {"measurement": "caspase inhibition", "setting": "[3]", "result": "inhibits"},
      {"measurement": "caspase inhibition", "setting": "[4]", "result": "inhibits"}
    ]},
    {"molecule": "Ac-Tyr-Val-Ala-Asp-aldehyde", "values": [
      {"measurement": "Ki", "setting": "[1]", "result": 10, "unit": "nM"},
      {"measurement": "Ki", "setting": "[2]", "result": "≥ 50", "unit": "µM"},
      {"measurement": "Ki", "setting": "[3]", "result": "≥ 50", "unit": "µM"},
      {"measurement": "Ki", "setting": "[4]", "result": 10, "unit": "nM"}
    ]},
    {"molecule": "MCP-1: rat recombinant MCP-1 administered subretinally", "values": [
      {"measurement": "number of TUNEL-positive cells in the ONL", "setting": "[5]", "result": "67.7±46.5", "unit": "cells/field"}
    ]},
    {"molecule": "TNF-alpha", "values": [
      {"measurement": "number of TUNEL-positive cells in the ONL", "setting": "[5]", "result": "did not change significantly"}
    ]},
    {"molecule": "etanercept", "values": [
      {"measurement": "TUNEL-positive response in the ONL as compared to controls", "setting": "[6]", "result": "significantly decreased"}
    ]},
    {"molecule": "B1", "values": [
      {"measurement": "effect on mRNA levels of bFGF, TNF-alpha, IL-1 beta, or any of the cytokines measured", "setting": "[7]", "result": "does not significantly alter"},
      {"measurement": "difference in number of TUNEL-positive cells, intravitreally-injected control eyes versus intravitreally-injected PEDF eyes", "setting": "[8]; initial set of experiments", "result": "no statistically significant difference"},
      {"measurement": "Number of TUNEL-Positive Cells, Mean", "setting": "[8]; initial set of experiments, intravitreal 2.5 μg, control 23.3", "result": "16.9 TUNEL-positive cells per millimeter of tissue"},
      {"measurement": "Number of TUNEL-Positive Cells, Mean", "setting": "[8]; initial set of experiments, intravitreal 5.0 μg, control 23.3", "result": "28.4 TUNEL-positive cells per millimeter of tissue"},
      {"measurement": "Number of TUNEL-Positive Cells, Mean", "setting": "[8]; initial set of experiments, subretinal 2.5 μg, control 63.8", "result": "17.6±15.5 TUNEL-positive cells per millimeter of tissue and 17.7 TUNEL-positive cells per millimeter of tissue"},
      {"measurement": "Number of TUNEL-Positive Cells, Mean", "setting": "[8]; initial set of experiments, subretinal 5.0 μg, control 63.8", "result": "30.4±18.1 TUNEL-positive cells per millimeter of tissue and 30.4 TUNEL-positive cells per millimeter of tissue"},
      {"measurement": "effect on photoreceptor cell death following retinal detachment as measured using TUNEL", "setting": "[8]; larger sample set, either subretinally or intravitreally", "result": "no significant effect"},
      {"measurement": "difference in number of TUNEL-positive cells, intravitreally-injected control eyes versus intravitreally-injected PEDF eyes", "setting": "[8]; second set of experiments", "result": "no statistically significant difference"},
      {"measurement": "Number of TUNEL-Positive Cells, Mean", "setting": "[8]; second set of experiments, intravitreal 5.0 μg, control 30.2", "result": "30.3 TUNEL-positive cells per millimeter of tissue"}
    ]},
    {"molecule": "B2", "values": [
      {"measurement": "number of TUNEL-positive cells in the ONL", "setting": "[5]", "result": "did not change significantly"}
    ]}
  ]
}
